Experiments:
Type in all cases: functional
[1] = system: HL-60(TB); test: Cytotoxicity against human HL-60(TB) cells after 48 hrs by SRB assay; settings: HL-60, 48 h
[2] = system: NCI-H460; test: Cytotoxicity against human NCI-H460 cells after 48 hrs by SRB assay; settings: NCI-H460, 48 h
[3] = system: SNB-19; test: Cytotoxicity against human SNB19 cells after 48 hrs by SRB assay; settings: SNB-19, 48 h
[4] = system: U-251; test: Cytotoxicity against human U251 cells after 48 hrs by SRB assay; settings: U-251, 48 h
[5] = system: MDA-MB-435; test: Cytotoxicity against human MDA-MB-435 cells after 48 hrs by SRB assay; settings: MDA-MB-435, 48 h
[6] = system: SK-MEL-5; test: Cytotoxicity against human SK-MEL-5 cells after 48 hrs by SRB assay; settings: SK-MEL-5, 48 h
[7] = system: IGROV-1; test: Cytotoxicity against human IGROV1 cells after 48 hrs by SRB assay; settings: IGROV-1, 48 h
[8] = system: OVCAR-4; test: Cytotoxicity against human OVCAR4 cells after 48 hrs by SRB assay; settings: OVCAR-4, 48 h
[9] = system: SK-OV-3; test: Cytotoxicity against human SKOV3 cells after 48 hrs by SRB assay; settings: SK-OV-3, 48 h
[10] = system: MDA-MB-468; test: Cytotoxicity against human MDA-MB-468 cells after 48 hrs by SRB assay; settings: MDA-MB-468, 48 h
[11] = system: CCRF-CEM; test: Growth inhibition of human CCRF-CEM cells assessed as cell growth at 10^-8 M incubated for 48 hrs by sulforhodamine B assay relative to control; settings: read-out: Activity
[12] = system: SR; test: Growth inhibition of human SR cells assessed as cell growth at 10^-8 M incubated for 48 hrs by sulforhodamine B assay relative to control; settings: read-out: Activity
[13] = system: Malme-3M; test: Growth inhibition of human MALME-3M cells assessed as cell growth at 10^-8 M incubated for 48 hrs by sulforhodamine B assay relative to control; settings: read-out: Activity
[14] = system: OVCAR-4; test: Growth inhibition of human OVCAR4 cells assessed as cell growth at 10^-8 M incubated for 48 hrs by sulforhodamine B assay relative to control; settings: OVCAR-4, 48 h, read-out: Activity
[15] = system: PC-3; test: Growth inhibition of human PC3 cells assessed as cell growth at 10^-8 M incubated for 48 hrs by sulforhodamine B assay relative to control; settings: PC-3, 48 h, read-out: Activity
[16] = system: K562; test: Growth inhibition of human K562 cells assessed as cell growth at 10^-7 M incubated for 48 hrs by sulforhodamine B assay relative to control; settings: K562, 48 h, read-out: Activity
[17] = system: NCI-H226; test: Growth inhibition of human NCI-H226 cells assessed as cell growth at 10^-7 M incubated for 48 hrs by sulforhodamine B assay relative to control; settings: NCI-H226, 48 h, read-out: Activity
[18] = system: NCI-H322M; test: Growth inhibition of human NCI-H322M cells assessed as cell growth at 10^-7 M incubated for 48 hrs by sulforhodamine B assay relative to control; settings: read-out: Activity
[19] = system: SNB-75; test: Growth inhibition of human SNB75 cells assessed as cell growth at 10^-7 M incubated for 48 hrs by sulforhodamine B assay relative to control; settings: SNB-75, 48 h, read-out: Activity
[20] = system: A498; test: Growth inhibition of human A498 cells assessed as cell growth at 10^-7 M incubated for 48 hrs by sulforhodamine B assay relative to control; settings: A498, 48 h, read-out: Activity
[21] = system: BT-549; test: Growth inhibition of human BT549 cells assessed as cell growth at 10^-7 M incubated for 48 hrs by sulforhodamine B assay relative to control; settings: BT-549, 48 h, read-out: Activity
[22] = system: DU-145; test: Growth inhibition of human DU145 cells assessed as cell growth at 10^-6 M incubated for 48 hrs by sulforhodamine B assay relative to control; settings: DU-145, 48 h, read-out: Activity
[23] = system: MCF7; test: Growth inhibition of human MCF7 cells assessed as cell growth at 10^-6 M incubated for 48 hrs by sulforhodamine B assay relative to control; settings: MCF7, 48 h, read-out: Activity
[24] = system: K562; test: Growth inhibition of human K562 cells assessed as cell growth at 10^-5 M incubated for 48 hrs by sulforhodamine B assay relative to control; settings: K562, 48 h, read-out: Activity
[25] = system: SW-620; test: Growth inhibition of human SW620 cells assessed as cell growth at 10^-5 M incubated for 48 hrs by sulforhodamine B assay relative to control; settings: SW-620, 48 h, read-out: Activity
[26] = system: SK-MEL-28; test: Growth inhibition of human SK-MEL-28 cells assessed as cell growth at 10^-5 M incubated for 48 hrs by sulforhodamine B assay relative to control; settings: SK-MEL-28, 48 h, read-out: Activity
[27] = system: NCI-H226; test: Growth inhibition of human NCI-H226 cells assessed as cell growth at 10^-4 M incubated for 48 hrs by sulforhodamine B assay relative to control; settings: NCI-H226, 48 h, read-out: Activity
[28] = system: U-251; test: Growth inhibition of human U251 cells assessed as cell growth at 10^-4 M incubated for 48 hrs by sulforhodamine B assay relative to control; settings: U-251, 48 h, read-out: Activity
[29] = system: NCI/ADR-RES; test: Growth inhibition of human NCI/ADR-RES cells assessed as cell growth at 10^-5 M incubated for 48 hrs by sulforhodamine B assay relative to control; settings: read-out: Activity
[30] = read-out: pLC50 (the source's name) (converted)
[31] = read-out: LC50 (the source's name)

`C#C[C@@]1(O)[C@@H](CO)O[C@@H](n2cc(Br)c3c(N)ncnc32)[C@@H]1O` gave a GI50 ([1]; read-out: GI50) of 21.8 to 71.6 nM, a TGI ([1]; read-out: TGI) of 75.7 to 313 nM and a CC50 [1, 30] of 5250 nM. For the same compound, the GI50 ([2]; read-out: GI50) was 17.1 to 50 nM, the CC50 [2, 31] was over 100000 nM and the TGI ([2]; read-out: TGI) was 1540 to 5270 nM. For the same compound, the GI50 ([3]; read-out: GI50) was 17.4 to 211 nM, the CC50 [3, 31] was over 100000 nM and the TGI ([3]; read-out: TGI) was 777 to 100000 nM. For the same compound, the GI50 ([4]; read-out: GI50) was 13.2 to 30.9 nM, the CC50 [4, 31] was over 100000 nM and the GI50 ([5]; read-out: GI50) was 105 to 294 nM. The TGI ([5]; read-out: TGI) was 5360 to 19700 nM, the CC50 [5, 30] was over 100000 nM and the GI50 ([6]; read-out: GI50) was 47.8 to 239 nM. The CC50 [6, 31] was 6240 to 100000 nM, the TGI ([6]; read-out: TGI) was 522 to 7180 nM and the GI50 ([7]; read-out: GI50) was 27.8 to 69.9 nM. The TGI ([7]; read-out: TGI) was 485 nM, the CC50 [7, 30] was over 100000 nM and the TGI ([7]; read-out: pTGI (converted)) was 490 nM. The GI50 ([8]; read-out: GI50) was 296 to 452 nM, the CC50 [8, 31] was over 100000 nM and the TGI ([8]; read-out: TGI) was over 100000 nM. It also gave a TGI ([8]; read-out: pTGI (converted)) of over 100000 nM, a GI50 ([9]; read-out: GI50) of 44.1 to 153 nM and a CC50 [9, 31] of over 100000 nM. The TGI ([9]; read-out: TGI) was 439 nM, the TGI ([9]; read-out: pTGI (converted)) was 437 nM and the GI50 ([10]; read-out: GI50) was 115 to 219 nM. For the same compound, the TGI ([10]; read-out: TGI) was 352 to 637 nM, the CC50 [10, 30] was 1910 nM and the growth at 0.01 µM [11] was 96 to 100%. It also gave a growth at 0.01 µM [12] of 101 to 104%, a growth at 0.01 µM [13] of 100 to 102% and a growth at 0.01 µM [14] of 96 to 100%. For the same compound, the growth at 0.01 µM [15] was 86 to 92%, the growth at 0.1 µM [16] was 27 to 48% and the growth at 0.1 µM [17] was 81 to 98%. It also gave a growth at 0.1 µM [18] of 73 to 76%, a growth at 0.1 µM [19] of 81 to 96% and a growth at 0.1 µM [20] of 88 to 98%. It also gave a growth at 0.1 µM [21] of 65 to 84%, a growth at 1 µM [22] of 15 to 16% and a growth at 1 µM [23] of 3 to 5%. For the same compound, the growth at 10 µM [24] was 6 to 7%, the growth at 10 µM [25] was 4 to 5% and the growth at 10 µM [26] was 38 to 40%. It also gave a growth at 100 µM [27] of 23%, a growth at 100 µM [28] of 4% and a growth at 10 µM [29] of -9%.

— ChEMBL document CHEMBL4270599, “Synthesis of a 3'-C-ethynyl-β-d-ribofuranose purine nucleoside library: Discovery of C7-deazapurine analogs as potent antiproliferative nucleosides” (Eur J Med Chem, 2018)
